The target in test [1] is BIR3 domain of human cIAP-1 (residues 267-363) (Homo sapiens (Human), UniProt Q13490). The test is described as follows: cIAP-1 in vitro competitive displacement binding assay (fluorescence polarization; Probe A AVPIK(5&6FAM)-amide or Probe B AbuRPFK(5&6FAM)-amide). (In general: Fluorescence polarisation rises when a labelled molecule tumbles more slowly, as on binding a larger partner.)

Test [2] has as its system MDA-MB-231 (human breast carcinoma). The test is described as follows: Anti-proliferative activity, Alamar Blue assay, MDA-MB-231. It counts as cell-based. Particulars: read-out: EC50, inhibition of cell growth.
Test [3] has as its target BIR3 domain of human XIAP (residues 252-350) (Homo sapiens (Human), UniProt P98170). Kind of test: XIAP in vitro competitive displacement binding assay (fluorescence polarization). Particulars: read-out: IC50 or PI Xiap: IC50.
The subject of test [4] is EVSA-T (human breast carcinoma). Kind of test: Anti-proliferative activity, Alamar Blue assay, EVSA-T. Particulars: Homo sapiens. It is filed as cell-based. (Alamar Blue is a resazurin reagent that responds to reducing activity.)
Where [5] appears, read: EVSA-T, 72 h, read-out: EVSA-T prolif (EC50).
Where [6] appears, read: Probe B AbuRPFK(5&6FAM)-amide, read-out: IC50 or PI cIAP1: IC50.
Where [7] appears, read: MDA-MB-231 cell line, 72 hours, Alamar Blue.
The mark [8] stands for this setting: EVSA-T cell line, 72 hours, Alamar Blue, read-out: EC50, inhibition of cell growth.
[9] abbreviates: EVSA-T, 72 hours, Alamar Blue, read-out: EVSA-T prolif (EC50).

Structures can show the parent of a compound that is named as a salt. Where two headings read alike, the source gives them in different places.

As usually defined, the IC50 is the concentration that gives 50% inhibition. The term EC50 denotes the concentration that produces a half-maximal response. As to `CC[C@H]1CN[C@H](C)CN1CC(=O)N1CC(C)(C)c2cc(F)c(S(=O)(=O)c3ccccc3)cc21` [Example 48, 1-(6-Benzenesulfonyl-5-fluoro-3,3-dimethyl-2,3-dihydro-indol-1-yl)-2-((2S,5R)-2-ethyl-5-methyl-piperazin-1-yl)-ethanone dihydrochloride salt], the concentration for half-maximal inhibition (IC50) in test [1] was less than 1 µM; in test [1] (read-out: IC50 or PI cIAP1: IC50) it was 0.064 µM; in test [3], 0.097 µM. Further, the EC50 is less than 10 µM in test [2] (MDA-MB-231, 72 h); less than 10 µM in test [4] (EVSA-T, 72 h, read-out: EC50, inhibition of cell growth); 0.25 µM in test [4] (setting [5]).
As to `COC[C@H]1CN[C@H](C)CN1CC(=O)N1CC(C)(C)c2cc(=O)n(Cc3ccccc3)cc21` [Example 67, 6-Benzyl-1-[2-((2R,5R)-2-methoxymethyl-5-methyl-piperazin-1-yl)-acetyl]-3,3-dimethyl-1,2,3,6-tetrahydro-pyrrolo[2,3-c]pyridin-5-one hydrochloride salt], the IC50 was less than 1 µM in test [1], 0.017 µM in test [1] (setting [6]) and 0.31 µM in test [3]. For the same compound, the EC50 in test [2] (setting [7]) was less than 10 µM; in test [4] (setting [8]), less than 10 µM; in test [4] (setting [9]), 0.35 µM.
For the compound `COC[C@H]1CN[C@H](C)CN1CC(=O)N1CC(C)(C)c2cnc(Oc3c(F)cccc3F)cc21` [Example 128, 1-[6-(2,6-Difluorophenoxy)-3,3-dimethyl-1H,2H,3H-pyrrolo[3,2-c]pyridin-1-yl]-2-[(2R,5R)-2-(methoxymethyl)-5-methylpiperazin-1-yl]ethan-1-one hydrochloride], the IC50 was 0.12 µM in test [1] (setting [6]) and 0.38 µM in test [3]. Moreover, the EC50 was less than 10 µM in test [2] (setting [7]), less than 10 µM in test [4] (setting [8]) and 1.1 µM in test [4] (setting [9]).
`C[C@@H]1CN(CC(=O)N2CC(C)(C)c3cnc(Cc4ccccc4)cc32)[C@@H](CF)CN1` [Example 121, 1-{6-Benzyl-3,3-dimethyl-1H,2H,3H-pyrrolo[3,2-c]pyridin-1-yl}-2-[(2R,5R)-2-(fluoromethyl)-5-methylpiperazin-1-yl]ethan-1-one hydrochloride]: the values for the 50% inhibitory concentration (IC50) in test [1] (setting [6]) and in test [3] were 0.021 µM and 0.19 µM, respectively. Besides, the values for the EC50 in test [2] (setting [7]) and in test [4] (setting [9]) were less than 10 µM and 0.38 µM, respectively.
With `COC[C@H]1CN[C@H](C)CN1CC(=O)N1CC(C)(C)c2ccc(Cc3ccccc3)cc21` [Example 94, 1-(6-Benzyl-3,3-dimethyl-2,3-dihydro-1H-indol-1-yl)-2-[(2R,5R)-2-(methoxy-methyl)-5-methyl-piperazin-1-yl]ethan-1-one, hydrochloride salt], the IC50 in test [1] (setting [6]) was determined as 0.014 µM. Moreover, the EC50 in test [2] (MDA-MB-231, 72 h) was less than 10 µM; in test [4] (setting [5]), 0.33 µM.
As to `COC[C@H]1CN[C@H](C)CN1CC(=O)N1CC(C)(C)c2cc(F)c(S(=O)(=O)c3ccccc3)cc21` [Example 58, 1-(6-Benzene-sulfonyl-5-fluoro-3,3-dimethyl-2,3-dihydro-indol-1-yl)-2-((2R,5R)-2-methoxymethyl-5-methyl-piperazin-1-yl)-ethanone hydrochloride salt], in test [1] (setting [6]), the IC50 came out at 0.045 µM. Besides, the half-maximal effective concentration (EC50) in test [2] (MDA-MB-231, 72 h) is less than 10 µM; in test [4] (setting [5]) it was 0.17 µM.
In the case of `COC[C@H]1CN[C@H](C)CN1CC(=O)N1CC(C)(C)c2cnc(Oc3c(C)cccc3C)cc21` [Example 119, 1-[6-(2,6-Dimethylphenoxy)-3,3-dimethyl-1H,2H,3H-pyrrolo[3,2-c]pyridin-1-yl]-2-[(2R,5R)-2-(methoxymethyl)-5-methylpiperazin-1-yl]ethan-1-one hydrochloride], the IC50 in test [1] (setting [6]) was found to be 0.096 µM. Moreover, the EC50 in test [2] (MDA-MB-231, 72 h) was less than 10 µM; in test [4] (setting [5]), 0.87 µM.
As to `COC[C@H]1CN[C@H](C)CN1CC(=O)N1CC(C)(C)c2cc(F)c(S(=O)(=O)c3ccc(OC)cc3)cc21` [Example 60, 1-[5-Fluoro-6-(4-methoxy-benzenesulfonyl)-3,3-dimethyl-2,3-dihydro-indol-1-yl]-2-((2R,5R)-2-methoxymethyl-5-methyl-piperazin-1-yl)-ethanone dihydrochloride salt], the EC50 is less than 10 µM in test [2] (MDA-MB-231, 72 h) and 0.69 µM in test [4] (setting [5]).

The record behind these values is US9018214B2, “Bicyclic heterocycle compounds and their uses in therapy” (Astex Therapeutics Limited, priority 2011, dated 2015).
